From patent publication US7378513B2, “Isolated proteins from a traditional Chinese medicine Yuzhu and use thereof” (priority 2005, dated 2008)
Values after ≈ are worked out from the molar mass of the structure shown. Read-outs that look alike come from different tables or passages of the source.

Columns and labels:
HSV-1 (15577) [1] = assay: microbe, parasite or virus in culture; format: cell-based, Herpes Simplex Virus; conditions: Human alphaherpesvirus 1; plaque reduction assay, Vero cells; M2 value is the average of two
HSV-1 (15577) [2] = assay: microbe, parasite or virus in culture; format: cell-based, Herpes Simplex Virus; conditions: Human alphaherpesvirus 1, CPE method
HSV-2 = assay: Cytopathic effect (CPE) inhibition assay, HSV-2; format: cell-based, Herpes Simplex Virus; conditions: Human alphaherpesvirus 2; CPE method, Vero cells
RSV (long strain) [3] = assay: microbe, parasite or virus in culture; format: cell-based, respiratory syncytial virus; conditions: CPE method; for IC50: human respiratory syncytial virus
RSV (long strain) [4] = assay: microbe, parasite or virus in culture; format: cell-based; conditions: human respiratory syncytial virus; plaque reduction assay
rabbit erythrocytes = assay: Hemagglutinating test, rabbit red blood cells; format: cell-based
Protocol: The assay was carried out in a U-shape microtiter plate as described previously (Ooi et al., 1998). […] Specific hemagglutinating activity was expressed as the number of hemagglutinating units per mg protein in Table 3. Rabbit, human (ABO groups), and chicken red blood cells were used for hemagglutinating test. Concanavalin A (ConA) was used as a positive control, and phosphate-buffered saline (PBS, 0.1M, pH7.4) as a negative control. A serial twofold dilution of the lectin solution (in PBS) in microtitre U-plates (50 μl) was mixed with 50 μl of a 2% suspension of red blood cells in PBS at room temperature. The results were read after about one hour when the blank (with red blood cells and buffer only) had fully sedimented.

Compound: Nc1nc2c(ncn2COCCO)c(=O)[nH]1 [Acyclovir]
- IC50 (HSV-1 (15577) [1]): 0.15 µg/mL (≈ 0.666 µM)
- IC50 (HSV-1 (15577) [2]; Vero cells, Table 4a Yuzhu (Dried Herbs)): 0.25 µg/mL (≈ 1.11 µM)
- IC50 (HSV-1 (15577) [2]; Table 4b Yuzhu (Fresh Herbs)): 0.25 µg/mL (≈ 1.11 µM)
- IC50 (HSV-2): 0.35 µg/mL (≈ 1.55 µM)

Compound: NC(=O)c1ncn([C@@H]2O[C@H](CO)[C@@H](O)[C@H]2O)n1 [Ribavirin]
- IC50 RSV (long strain) (RSV (long strain) [3]; Hep2 cells, Table 4a Yuzhu (Dried Herbs), listed as Ribvirin): (6.3) μg/ml
- IC50 (RSV (long strain) [3]; HEp-2, Hep2 cells, Table 4a Yuzhu (Dried Herbs), read-out: IC50 RSV (long strain)): 6.3 µg/mL (≈ 25.8 µM)
- IC50 (RSV (long strain) [3]; Table 4b Yuzhu (Fresh Herbs), read-out: IC50 RSV): 6.3 µg/mL (≈ 25.8 µM)
- IC50 (RSV (long strain) [4]): 3.3 µg/mL (≈ 13.5 µM)

Compound: Concanavalin A [ConA]
- Specific hemagglutinating activity (rabbit erythrocytes): 12,800 U/mg protein
